Earlier results in PubChem BioAssay AID1259410 (Chemical Carcinogenesis Research Information System (CCRIS), 2018).

Tested on: rodent tumor promotion studies, tumor incidence
Assay: CCRIS tumor promotion studies

In the case of CC(=O)O[C@@]12[C@H](OC(=O)/C=C(C)/C=C/C=C(C)/C=C/C3=C(C)CCCC3(C)C)[C@@H](C)[C@@]3(O)[C@@H](C=C(CO)C[C@]4(O)C(=O)C(C)=C[C@@H]34)[C@@H]1C2(C)C, the outcome (Carcinogen: 7,12-DIMETHYLBENZ[A]ANTHRACENE, 57-97-6, Doses [Carcinogen]: 10 NMOL ONCE, Doses [Promoter]: 0, 2.5, 5 UG IN 0.2 ML ACETONE 2/WK FOR 21 WK BEGINNING 1 WK POST CARCINOGEN (STUDY DURATION: 21 WK), Doses [Promoter]: 0, 2.5, 5 UG IN 0.2 ML ACETONE 2/WK FOR 21 WK BEGINNING 1 WK POST CARCINOGEN (STUDY DURATION: 21 WK), Route [Carcinogen]: DERMAL, Route [Promoter]: DERMAL, Species: MOUSE, Strain/Sex: SENCAR/FEMALE) is given as “skin: papilloma”.

In the case of NC(Cc1c[nH]c2ccccc12)C(=O)O (centres undefined), the outcome (Carcinogen: 2-NAPHTHYLAMINE, Doses [Carcinogen]: DIET, Doses [Promoter]: IN DIET, Route [Carcinogen]: ORAL, Route [Promoter]: ORAL, Species: DOG, Strain/Sex: FEMALE) is listed as “urinary bladder” and the outcome (Carcinogen: N-(4-(5-NITRO-2-FURYL)-2-THIAZOLYL)FORMAMIDE, Doses [Carcinogen]: DIET, Doses [Promoter]: IN DIET, Route [Carcinogen]: ORAL, Route [Promoter]: ORAL, Species: RAT, Strain/Sex: F344/MALE) is listed as “urinary bladder: papilloma, carcinoma”.

In the case of CC1=C(/C=C/C(C)=C/C=C/C(C)=C/C(=O)O)C(C)(C)CCC1, the outcome (Carcinogen: 7,12-DIMETHYLBENZ[A]ANTHRACENE, 57-97-6, Doses [Carcinogen]: 50 NMOL IN 200 µL ACETONE 2/WK FOR 16 WK, Doses [Promoter]: 0, 0.5, 25 NMOL IN 200 µL ACETONE APPLIED 1 HR PRIOR TO CARCINOGEN DOSES 2/WK FOR 16 WK (STUDY DURATION: 16 WK), Doses [Promoter]: 0, 0.5, 25 NMOL IN 200 µL ACETONE APPLIED 1 HR PRIOR TO CARCINOGEN DOSES 2/WK FOR 16 WK (STUDY DURATION: 16 WK), Route [Carcinogen]: DERMAL, Route [Promoter]: DERMAL, Species: MOUSE, Strain/Sex: CD-1/FEMALE) is listed as “skin: tumors”.

For Cc1c(N(C)CS(=O)(=O)O)c(=O)n(-c2ccccc2)n1C, the outcome (Carcinogen: DIETHYLNITROSAMINE, 55-18-5, Doses [Carcinogen]: 0.O1% IN DRINKING WATER FOR 2 WK, Doses [Promoter]: 0.4% IN DRINKING WATER 5 D/ WK FOR 72 WK BEGINNING 1 WK POST CARCINOGEN (STUDY DURATION: 83 WK), Route [Carcinogen]: ORAL, Route [Promoter]: ORAL, Species: RAT, Strain/Sex: F344/MALE) is listed as “liver neoplastic nodule, hepatocellular carcinoma ; kidney: adenoma”.

In the case of ClC1(Cl)C2(Cl)C3(Cl)C4(Cl)C(Cl)(Cl)C5(Cl)C3(Cl)C1(Cl)C5(Cl)C24Cl (centres undefined), the outcome (Carcinogen: 7,12-DIMETHYLBENZ[A]ANTHRACENE, 57-97-6, Doses [Carcinogen]: 200 NMOL IN 200 µL ACETONE ONCE, Doses [Promoter]: 0, 25, 50, 100, 200 NMOL IN 200 µL ACETONE 3/WK FOR 20 WK (STUDY DURATION: 20 WK), Doses [Promoter]: 0, 25, 50, 100, 200 NMOL IN 200 µL ACETONE 3/WK FOR 20 WK (STUDY DURATION: 20 WK), Route [Carcinogen]: DERMAL, Route [Promoter]: DERMAL, Species: MOUSE, Strain/Sex: CD-1/FEMALE) is listed as “skin: tumor”, the outcome (Carcinogen: 7,12-DIMETHYLBENZ[A]ANTHRACENE, 57-97-6, Doses [Carcinogen]: 200 NMOL IN 200 µL ACETONE ONCE, Doses [Promoter]: 0, 25, 50, 100 NMOL IN 200 µL ACETONE 3/WK FOR 34 WK (STUDY DURATION: 34 WK), Doses [Promoter]: 0, 25, 50, 100 NMOL IN 200 µL ACETONE 3/WK FOR 34 WK (STUDY DURATION: 34 WK), Route [Carcinogen]: DERMAL, Route [Promoter]: DERMAL, Species: MOUSE, Strain/Sex: CD-1/FEMALE) is listed as “skin: tumor” and the outcome (Carcinogen: 7,12-DIMETHYLBENZ[A]ANTHRACENE, 57-97-6, Doses [Carcinogen]: 200 NMOL IN 200 µL ACETONE ONCE, Doses [Promoter]: 0, 200 NMOL IN 200 µL ACETONE 2/WK FOR 20 WK BEGINNING 1 WK POST CARCINOGEN DOSE (STUDY DURATION: 21 WK), Route [Carcinogen]: DERMAL, Route [Promoter]: DERMAL, Species: MOUSE, Strain/Sex: CD-1/FEMALE) is listed as “skin: tumors”. The outcome (Carcinogen: 7,12-DIMETHYLBENZ[A]ANTHRACENE, 57-97-6, Doses [Carcinogen]: 200 NMOL IN 200 µL ACETONE ONCE, Doses [Promoter]: 0, 200 NMOL IN 200 µL ACETONE 3/WK FOR 20 WK BEGINNING 1 WK POST CARCINOGEN DOSE (STUDY DURATION: 21 WK), Route [Carcinogen]: DERMAL, Route [Promoter]: DERMAL, Species: MOUSE, Strain/Sex: CD-1/FEMALE) was “skin: tumors”, the outcome (Carcinogen: 7,12-DIMETHYLBENZ[A]ANTHRACENE, 57-97-6, Doses [Carcinogen]: 200 NMOL IN 200 µL ACETONE ONCE, Doses [Promoter]: 0, 200 NMOL IN 200 µL ACETONE 3/WK FOR 20 WK BEGINNING 1 WK POST CARCINOGEN DOSE (STUDY DURATION: 21 WK), Route [Carcinogen]: DERMAL, Route [Promoter]: DERMAL, Species: MOUSE, Strain/Sex: CD-1/MALE) was “skin: tumors” and the outcome (Carcinogen: 7,12-DIMETHYLBENZ[A]ANTHRACENE, 57-97-6, Doses [Carcinogen]: 200 NMOL IN 200 µL ACETONE ONCE, Doses [Promoter]: 0, 200 NMOL IN 200 µL ACETONE 3/WK FOR 20 WK BEGINNING 4 WK POST CARCINOGEN DOSE ADMINISTERED TO OVARIECTOMIZED MICE (ST, Route [Carcinogen]: DERMAL, Route [Promoter]: DERMAL, Species: MOUSE, Strain/Sex: CD-1/FEMALE) was “skin: tumors”.

For C=CCc1ccc(O)c(OC)c1, the outcome (Carcinogen: 1,2-DIMETHYLHYDRAZINE, 57-14-7 1-METHYL-1-NITROSOUREA, 684-93-5, Carcinogen: 1,2-DIMETHYLHYDRAZINE, 57-14-7 1-METHYL-1-NITROSOUREA, 684-93-5, Doses [Carcinogen]: 40 MG/KG 1,2-DIMETHYLHYDRAZINE IN 0.9% NACL SUBCUTANEOUS 3/WK IN FIRST WK FOLLOWED BY 20 MG 1-METHYL-1-NITROSOUREA/5 ML, Doses [Promoter]: 0, 0.8% IN DIET FOR 48 WK ADMINISTERED 1 WK POST CARCINOGEN DOSE (STUDY DURATION: 52 WK), Route [Carcinogen]: SUBCUTANEOUS, INTRAPERITONEAL, Route [Promoter]: ORAL, Species: RAT, Strain/Sex: F344/MALE) is given as “forestomach: papilloma”.

For CCN(CC)CCCC(C)Nc1c2ccc(Cl)cc2nc2ccc(OC)cc12 (centres undefined), the outcome (Carcinogen: N-NITROBIS(2-OXOPROPYL)AMINE, 60599-38-4, Doses [Carcinogen]: 10 MG/KG BW 1/WK FOR 3 WK, Doses [Promoter]: 0, 100 PPM IN DIET FOR 37 WK BEGINNING POST CARCINOGEN TREATMENT (STUDY DURATION: 40 WK), Route [Carcinogen]: SUBCUTANEOUS, Route [Promoter]: ORAL, Species: HAMSTER, Strain/Sex: SYRIAN/FEMALE) is listed as “pancreas: adenocarcinoma; liver: hepatocellular adenoma or carcinoma” and the outcome (Carcinogen: N-NITROBIS(2-OXOPROPYL)AMINE, 60599-38-4, Doses [Carcinogen]: 10 MG/KG BW 1/WK FOR 3 WK, Doses [Promoter]: 0, 300 PPM IN DIET FOR 37 WK BEGINNING POST CARCINOGEN TREATMENT (STUDY DURATION: 40 WK), Route [Carcinogen]: SUBCUTANEOUS, Route [Promoter]: ORAL, Species: HAMSTER, Strain/Sex: SYRIAN/FEMALE) is listed as “liver: hepatocellular adenoma or carcinoma”.

In the case of O=C1O[C@H]([C@H](O)CO)C(O)=C1O, the outcome (Carcinogen: N-BUTYL-N-(4-HYDROXYBUTYL)NITROSAMINE, 3817-11-6, Doses [Carcinogen]: 0.05% IN DRINKING WATER FOR 4 WK, Doses [Promoter]: 0, 5% IN DIET FOR 32 WK (STUDY DURATION: 36 WK), Route [Carcinogen]: ORAL, Route [Promoter]: ORAL, Species: RAT, Strain/Sex: F344/MALE) is listed as “urinary bladder: papilloma, carcinoma” and the outcome (Carcinogen: N-BUTYL-N-(4-HYDROXYBUTYL)NITROSAMINE, 3817-11-6, Doses [Carcinogen]: 0.05% IN DRINKING WATER FOR 4 WK, Doses [Promoter]: 0, 5% IN DIET FOR 32 WK BEGINNING POST CARCINOGEN (STUDY DURATION: 36 WK), Route [Carcinogen]: ORAL, Route [Promoter]: ORAL, Species: RAT, Strain/Sex: F344/MALE) is listed as “bladder: papilloma, carcinoma”.

For O=NN1CCC[C@H]1c1cccnc1, the outcome (Carcinogen: Diethylnitrosamine, 55-18-5, Doses [Carcinogen]: 40 mg/l for 4 consecutive d/wk for 180 days, study duration 180 d, Doses [Promoter]: 30 mg/l, 3 d /wk for 180 d, study duration 180 d, Doses [Promoter]: 30 mg/l, 3 d /wk for 180 d, study duration 180 d, Route [Carcinogen]: Oral (drinking water), Route [Promoter]: Oral (drinking water), Species: Mouse, Strain/Sex: CF1/Female (16, 46/Group)) is listed as “stomach: squamous cell carcinoma (33% vs 22%); adenocarcinoma (17% vs 15%); both”.

For ClC1=C(Cl)C2(Cl)C3C(Cl)C=CC3C1(Cl)C2(Cl)Cl (centres undefined), the outcome (Carcinogen: DIETHYLNITROSAMINE, 55-18-5, Doses [Carcinogen]: 20 PPM IN DRINKING WATER FOR 14 WK, Doses [Promoter]: 0, 5, 10 PPM TECHNICAL GRADE IN DIET BEGINNING 4 WK POST LAST CARCINOGEN DOSE AND CONTINUING FOR 25 WK (STUDY DURATION:, Doses [Promoter]: 0, 5, 10 PPM TECHNICAL GRADE IN DIET BEGINNING 4 WK POST LAST CARCINOGEN DOSE AND CONTINUING FOR 25 WK (STUDY DURATION:, Route [Carcinogen]: ORAL, Route [Promoter]: ORAL, Species: MOUSE, Strain/Sex: B6C3F1/MALE) is given as “liver: adenoma or carcinoma”.

For O=C1c2cccc(O)c2C(=O)c2c(O)cccc21, the outcome (Carcinogen: 1,2-DIMETHYLHYDRAZINE, 540-73-8, Doses [Carcinogen]: 20 MG/KG BW 1/WK FOR 12 WK, Doses [Promoter]: 0, 0.2% IN DIET FOR 42 WK BEGINNING POST CARCINOGEN TREATMENT (STUDY DURATION: 54 WK), Route [Carcinogen]: SUBCUTANEOUS, Route [Promoter]: ORAL, Species: MOUSE, Strain/Sex: ICR/CD-1/MALE) is given as “colon: tumor; liver: tumor”.
